Test: pKa of the mercapto group by titration with hydrochloric acid in water
Assay type: physicochemical
Conditions: 0.002 mole/liter, dissolved at pH 11, titrated with 0.1 mole/liter hydrochloric acid
Experimental: The pKa of the mercapto-compounds in connection with the present invention were determined according to the method described in "Ionization Constants of Acids and Bases--A Laboratory Manual" written by Adrien Albert and E. P. Serjeant and Edited by John Wiley & Sons (New York) page 110-112 (1962).
In these particular cases, the compounds were dissolved in water at pH 11. The concentration of the compounds was 0.002 mole/liter and the mixture was then titrated with a solution of hydrochloric acid (0.1 mole/liter).

Row | pKa | SMILES
1 | 3.3 | CCCCN(CCCC)C(=O)Cn1nnnc1S [compound 2]
2 | 3.4 | CCCCCCCCn1nnnc1S [compound 4]
3 | 3.2 | CCCCn1nnnc1S [compound 5]
4 | 3.1 | Sc1nnnn1-c1ccccc1 [compound 6]

— patent publication US5665515A, “Method for obtaining a printing plate according to the silver salt diffusion transfer process” (Agfa-Gevaert N.V., priority 1994, dated 1997)
